Measurements published in patent EP0076430A1, “Compositions having antimicrobial activity” (MEDEA RESEARCH S.r.l., priority 1981, dated 1983).

Experiments:
Format in all cases: cell-based
[1] = tested on: Indole-positive Proteus; test: Bactericide activity at different contact times; parameters: key to Bactericide action (growth / no growth): + = growth; - = no growth; details: 200 p.p.m.
Experimental: (§1) Different bacterial species isolated from patients are employed.
(§2) Compounds AB5 and AB6 are dissolved in ethanol (ethyl alcohol 95°, C. Erba) and all the subsequent dilutions performed in distilled water. The chlorhexidine is diluted from the commercial product already dissolved in distilled water.
(§3) It is assessed through Dinatech apparatus with "Inoculum 96" head.
(§4) Chemical compounds at established concentra tions are placed in amount of 1 ml in the con tainers, the bacterial inoculum is then added in amount of 0.1 ml (24 hrs culture) and at pre-established times (3,5,10,30,60 and 120 mi nutes), through the head, the mixture compound/ disinfectant agent is transferred in solid medium (agar-heart-brain medium). After incubation at 35°C for 24 hours, the reading is carried out. The tests are repeated in presence of human serum at the concentration of 10%.

[2] = tested on: Serratia marcescens; test: Bactericide activity at different contact times; parameters: key to Bactericide action (growth / no growth): + = growth; - = no growth; details: 200 p.p.m.
Experimental: as §1, §2, §3, §4

[3] = tested on: E. coli; test: Bactericide activity at different contact times; parameters: key to Bactericide action (growth / no growth): + = growth; - = no growth; details: 200 p.p.m.
Experimental: as §1, §2, §3, §4

[4] = tested on: Different bacterial species isolated from patients; test: Bactericide activity, minimum active concentration on the strains; details: Homo sapiens, 24 h
Experimental: as §1
Strains of E. coli, Pseudomonas aeruginosa, indole-positive and negative Proteus, Staphilococcus aureus, Enterobacter, Salmonella sp., Serratia marcescens, B. subtilis and Bacillaceae are investigated.
as §2, §3, §4
For chlorhexidine, the minimum active concentration is 200 p.p.m.

[5] = tested on: Salmonella sp.; test: Bactericide activity at different contact times; parameters: key: + = growth; - = no growth; details: 200 p.p.m.
Experimental: as §1, §2, §3, §4

[6] = tested on: Staph. aureus; test: Bactericide activity at different contact times; parameters: key: + = growth; - = no growth; details: 200 p.p.m.
Experimental: as §1, §2, §3, §4

[7] = tested on: B. subtilis; test: Bactericide activity at different contact times; parameters: key: + = growth; - = no growth; details: 200 p.p.m.
Experimental: as §1, §2, §3, §4

[8] = tested on: E.coli; test: Minimum inhibitory concentration (MIC), broth dilution; details: Escherichia coli, 24 h
Experimental: as §1, §2
(§5) The broth dilution is employed to assess MIC values for all strains. Sterile microtiter plates with U bottom with 96 wells are employed. 0.1 Ml of liquid medium (tryptose Roche broth) are put in each well, the plates are kept at -20° and, before use, at room temperature.
(§6) The disinfectant agent is put in the wells of the row 2 at a concentration of 4000 mcg/ml (real 2000 mcg/ml) and then with a 100 µl micro- pipette dilutions are performed from row 2 to row 11.
(§7) The row 1 is the control of the medium and the row 12 is the control for the fertility of the medium itself.
(§8) After having performed the dilutions, 0.01 ml of a 24 hrs bacterial broth culture (previously diluted at 10^-4 for Gram-negative strains and 10-2 for Gram-positive ones) are placed in all wells, from the rows 2 to 12. After the inoculation, the plate is hermetical ly sealed with adhesive transparent band and an hole is done with a needle. The plates are kept at 35° for 24 hours and a macroscopic reading is carried out; in case of non uniform reading, taking place only for chlorhexidine, the cultures from the wells are plated on agar-heart-brain medium (Sclavo) through Dinatech apparatus (head "Inoculum 96") and the reading of the growth is carried out in the following 24 hours.

[9] = tested on: Indole-positive Proteus; test: as above; details: 24 h
Experimental: as §1, §2, §5, §6, §7, §8

[10] = tested on: Salmonella sp.; test: as above; details: 24 h, strain 2482
Experimental: as §1, §2, §5, §6, §7, §8

[11] = tested on: Enterobacter; test: as above; details: 24 h, strain 2643
Experimental: as §1, §2, §5, §6, §7, §8

[12] = tested on: Bacillaceae; test: as above; details: 24 h; strain 1722
Experimental: as §1, §2, §5, §6, §7, §8

[13] = tested on: Pseudomonas aeruginosa; test: as above; details: 24 h
Experimental: as §1, §2, §5, §6, §7, §8

[14] = tested on: Staph. aureus; test: as above; details: Staphylococcus aureus, 24 h; strain 2672
Experimental: as §1, §2, §5, §6, §7, §8

[15] = tested on: Pseudomonas aeruginosa; test: Bactericide activity at different contact times; parameters: key to Bactericide action (growth / no growth) / Bactericide activity (growth / no growth), serum interference test: + = growth; - = no growth; details: 200 p.p.m.
Experimental: as §1, §2, §3, §4

N=C(NCCCCCCNC(=N)NC(=N)Nc1ccc(Cl)cc1)NC(=N)Nc1ccc(Cl)cc1 [Chlorhexidine, N,N'-bis-(4-chlorophenyl)-3,12-diimino-2,4,11,13-tetraazatetradecandiimidamide, reference compound]
500 mg/L: MIC ([8]; strain 2456) | MIC [10]
30 to 120 min: contact time for total bactericide activity [3]
200 mg/L: MBC [4]
< 0.98 mg/L: MIC [12] | MIC [14]
1000 mg/L: MIC ([8]; strain 2096) | MIC ([8]; strain 2117) | MIC ([9]; strain 2083) | MIC ([13]; strain 2458)
+: Bactericide action (growth / no growth) ([1]; contact time 3 min) | Bactericide action (growth / no growth) ([1]; contact time 5 min) | Bactericide action (growth / no growth) ([1]; contact time 10 min) | Bactericide action (growth / no growth) ([1]; contact time 30 min) | Bactericide action (growth / no growth) ([1]; contact time 60 min) | Bactericide action (growth / no growth) ([2]; contact time 3 min) | Bactericide action (growth / no growth) ([2]; contact time 5 min) | Bactericide action (growth / no growth) ([2]; contact time 10 min) | Bactericide action (growth / no growth) ([2]; contact time 30 min) | Bactericide action (growth / no growth) ([3]; contact time 3 min) | Bactericide action (growth / no growth) ([3]; contact time 5 min) | Bactericide action (growth / no growth) ([3]; contact time 10 min) | Bactericide action (growth / no growth) ([5]; contact time 3 min) | Bactericide action (growth / no growth) ([5]; contact time 5 min) | Bactericide action (growth / no growth) ([5]; contact time 10 min) | Bactericide action (growth / no growth) ([5]; contact time 30 min) | Bactericide action (growth / no growth) ([6]; contact time 3 min) | Bactericide action (growth / no growth) ([6]; contact time 5 min) | Bactericide action (growth / no growth) ([6]; contact time 10 min) | Bactericide action (growth / no growth) ([7]; contact time 3 min) | Bactericide action (growth / no growth) ([7]; contact time 5 min) | Bactericide action (growth / no growth) ([7]; contact time 10 min) | Bactericide action (growth / no growth) ([7]; contact time 30 min) | Bactericide action (growth / no growth) ([15]; contact time 3 min) | Bactericide action (growth / no growth) ([15]; contact time 5 min) | Bactericide action (growth / no growth) ([15]; contact time 10 min) | Bactericide action (growth / no growth) ([15]; contact time 30 min)
-: Bactericide action (growth / no growth) ([1]; contact time 120 min) | Bactericide action (growth / no growth) ([2]; contact time 60 min) | Bactericide action (growth / no growth) ([2]; contact time 120 min) | Bactericide action (growth / no growth) ([3]; contact time 30 min) | Bactericide action (growth / no growth) ([3]; contact time 60 min) | Bactericide action (growth / no growth) ([3]; contact time 120 min) | Bactericide action (growth / no growth) ([5]; contact time 60 min) | Bactericide action (growth / no growth) ([5]; contact time 120 min) | Bactericide action (growth / no growth) ([6]; contact time 30 min) | Bactericide action (growth / no growth) ([6]; contact time 60 min) | Bactericide action (growth / no growth) ([6]; contact time 120 min) | Bactericide action (growth / no growth) ([7]; contact time 60 min) | Bactericide action (growth / no growth) ([7]; contact time 120 min) | Bactericide action (growth / no growth) ([15]; contact time 60 min) | Bactericide action (growth / no growth) ([15]; contact time 120 min)
> 1000 mg/L: MIC ([9]; strain 2075) | MIC ([9]; strain 2105)
> 2000 mg/L: MIC ([9]; strain 2674) | MIC ([13]; strain 2508) | MIC ([13]; strain 2670)
2000 mg/L: MIC ([8]; strain 2568) | MIC ([9]; strain 2410) | MIC ([9]; strain 2447) | MIC [11] | MIC ([13]; strain 2488) | MIC ([13]; strain 2509)
